This passage reports IC50 results from ChEMBL document CHEMBL1157937, “Discovery of novel leukotriene A4 hydrolase inhibitors based on piperidine and piperazine scaffolds” (Bioorg Med Chem Lett, 2010).

In experiment [1] the target is T1, Leukotriene A-4 hydrolase (Homo sapiens, UniProt P09960).
T1 sequence (P09960 whole entry): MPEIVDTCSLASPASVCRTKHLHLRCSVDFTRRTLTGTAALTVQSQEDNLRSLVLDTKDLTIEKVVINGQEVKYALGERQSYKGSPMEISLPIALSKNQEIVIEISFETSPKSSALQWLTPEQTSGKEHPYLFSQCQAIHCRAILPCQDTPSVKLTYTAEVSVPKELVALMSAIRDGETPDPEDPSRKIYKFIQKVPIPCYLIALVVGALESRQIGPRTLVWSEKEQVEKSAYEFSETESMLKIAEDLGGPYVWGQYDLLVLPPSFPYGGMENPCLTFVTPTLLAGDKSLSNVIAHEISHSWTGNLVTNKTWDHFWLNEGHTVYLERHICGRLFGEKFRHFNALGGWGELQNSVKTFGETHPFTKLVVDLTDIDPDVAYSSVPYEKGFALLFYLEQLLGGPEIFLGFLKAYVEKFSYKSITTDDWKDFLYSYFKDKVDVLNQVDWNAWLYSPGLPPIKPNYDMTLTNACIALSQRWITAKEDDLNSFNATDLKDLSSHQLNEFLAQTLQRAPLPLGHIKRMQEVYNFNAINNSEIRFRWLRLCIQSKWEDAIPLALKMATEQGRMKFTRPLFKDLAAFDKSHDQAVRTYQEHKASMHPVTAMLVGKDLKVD
Description: Inhibition of human LTA4H hydrolysis assessed as inhibition of Ca2+ ionophore-stimulated LTB4 formation in human whole blood by ELISA

Experiment [2] concerns the target T1, Leukotriene A-4 hydrolase. The source holds these as a separate data set.
Description: Inhibition of human recombinant LTA4H hydrolysis assessed as inhibition of LTB4 formation by LC-MS/MS

Usually IC50 stands for the concentration needed to halve the response being measured. For `c1ccc(Cc2ccc(OCC3CCCCN3)cc2)cc1` (racemic), the IC50 came out at 105 nM in experiment [1] and 134 nM in experiment [2].

Take `c1ccc(-c2ccc(Oc3ccc(OC[C@H]4CCCCN4)cc3)cc2)cc1`: the IC50 was determined as 29 nM in experiment [1] and 96 nM in experiment [2].

For `c1ccc(Cc2ccc(OC[C@H]3CCCCN3)cc2)cc1`, the IC50 in experiment [1] was found to be 60 nM; in experiment [2], 94 nM.

In experiment [2], `c1cc(-c2ccc(Cc3ccc(OC[C@@H]4CCCCN4)cc3)cc2)cs1` registered an IC50 of 60 nM.

In experiment [2], `O=C(O)CCN1CCCC[C@H]1COc1ccc(Oc2ccc(Cl)cc2)cc1` came in with an IC50 of 212 nM.

Consider `O=C(O)CCCN1CCCC[C@H]1COc1ccc(Oc2ccc(Cl)cc2)cc1`, for which the figures for the IC50 in experiment [1] and in experiment [2] were 23 nM and 106 nM, respectively.

Take `c1ccc(Oc2ccc(OCC3CCCCN3)cc2)cc1` (racemic): the IC50 in experiment [1] stood at 207 nM; in experiment [2], 70 nM.

On to `c1ccc(Cc2ccc(OCC3CN(Cc4ccccc4)CCN3)cc2)cc1` (configuration not stated), for which, in experiment [2], half-maximal inhibition (IC50) was put at 660 nM.

In experiment [2], `O=C(O)CN1CCCC[C@H]1COc1ccc(Oc2ccc(Cl)cc2)cc1` registered an IC50 of 880 nM.

For `O=C(O)CCCN1CCCC[C@@H]1COc1ccc(Oc2ccc(Cl)cc2)cc1`, the IC50 is 6 nM in experiment [1] and 53 nM in experiment [2].

Compound `c1ccc(Cc2ccc(OCC3CNCCN3)cc2)cc1` (configuration not stated) had an IC50 in experiment [2] of 342 nM.

Take `FC(F)(F)c1ccc(Oc2ccc(OC[C@H]3CCCCN3)cc2)cc1`: the IC50 in experiment [1] amounted to 173 nM; in experiment [2], 93 nM.

Regarding `c1ccc(-c2ccc(Oc3ccc(OC[C@@H]4CCCCN4)cc3)cc2)cc1`, the IC50 in experiment [1] is 43 nM; in experiment [2], 114 nM.

Consider `Clc1ccc(Cc2ccc(OC[C@H]3CCCCN3)cc2)cc1`, for which inhibition in experiment [2] was half-maximal at 315 nM (IC50).

On to `Clc1ccc(Oc2ccc(OC[C@@H]3CCCCN3)cc2)cc1`, for which the values for the half-maximal inhibitory concentration (IC50) in experiment [1] and in experiment [2] were 40 nM and 110 nM, respectively.

On to `c1ccc(Oc2ccc(OC[C@H]3CCCCN3)cc2)cc1`, for which the IC50 in experiment [1] stood at 126 nM; in experiment [2] it was 48 nM.

With `Fc1ccc(Oc2ccc(OC[C@@H]3CCCCN3)cc2)cc1`, the figures for the IC50 in experiment [1] and in experiment [2] were 90 nM and 174 nM, respectively.

`Clc1ccc(Cc2ccc(OC[C@@H]3CCCCN3)cc2)cc1` gave an IC50 in experiment [2] of 438 nM.

For the compound `Clc1ccc(Oc2ccc(OC[C@@H]3CCCCN3Cc3ncon3)cc2)cc1`, the IC50 in experiment [2] was 6900 nM.

In the case of `c1ccc(Oc2ccc(OC[C@@H]3CCCCN3)cc2)cc1`, the results for the concentration for half-maximal inhibition (IC50) in experiment [1] and in experiment [2] were 286 nM and 44 nM, respectively.
